Measurements published in article PMC10752957, “GABAA receptors as plausible molecular targets and mediators for taurine and homotaurine actions” (Frontiers in Pharmacology, 2023).
Where “and” joins values, the source holds several entries; their conditions need not be identical. Equal values may be shown once. Read-outs that look alike come from different tables or passages of the source.

Columns and labels:
[1] = tested on: native GABAARs in cerebellar granule cells; assay: Whole-cell patch clamp of cerebellar granule cells in mouse brain slices, cumulative concentration-response; format: cell-based; details: for Concentration at which currents reach saturation / Threshold concentration for eliciting currents: cumulative application; for Hill slope of the concentration-response curve: normalized concentration-response curves; for Hill slope of the concentration-response curve / Maximal current response (Imax ± SEM) / EC50: n = 7; for Maximal current response (Imax ± SEM): 1 mM HT, 3 mM taurine, 3 mM GABA; for EC50: read-out: EC50 for evoking GABAAR-mediated current, CGCs held at −70 mV, 10 μM DNQX, 0.3 μM TTX, room temperature, mean ± SEM
[2] = target: mouse brain native GABAARs; assay: 5 nM [3H]muscimol displacement from mouse brain (sans cerebellum) membranes; format: binding; details: n = 9; for IC50: 5 nM [3H]muscimol, mean ± SEM, read-out: IC50 for displacing [3H]muscimol binding
Method: Adult mouse brain (sans cerebellum) membrane pellets were prepared essentially as described by [Uusi-Oukari et al. (2014)], suspended in 50 mM Tris-HCl, pH 7.4 (assay buffer) and frozen at −80°C. For binding experiments, the suspension was thawed and washed by centrifugation/resuspension in assay buffer. 5 nM [^3H]muscimol binding was measured in assay buffer at room temperature (RT, ∼22°C) in a total volume of 300 µL. […] After 20 min incubation at room temperature the membranes were collected with a Brandel Cell Harvester (Model M-24, Gaithersburg, MD, United States) onto Whatman GF/B filters (Whatman International Ltd., Maidstone, United Kingdom). The samples were rinsed twice with 4–5 mL of ice-cold assay buffer. Filtration and rinsing steps took a total time of ∼15 s. Air-dried filters were immersed in 3 mL of Optiphase HiSafe 3 scintillation fluid (Wallac, Turku, Finland) and radioactivity determined in a Hidex 600 SL liquid scintillation counter (Hidex, Turku, Finland). [^3H]Muscimol displacement and electrophysiology data were analyzed with GraphPad Prism 7 software (GraphPad, San Diego, CA, United States). Data are presented as mean ± standard error of mean (SEM). Statistical data analysis was performed with a Student’s t-test (two-tailed distribution, unequal variance) in Microsoft Excel.

rat = tested on: rat; parameters: method as in Olive et al., 2002; details: fold lower doses than acetyl-HT, rat models; ref Olive et al., 2002; cited from earlier work
GABAAR = tested on: GABAAR; parameters: method as in Allan and Harris, 1986; details: ref Allan and Harris, 1986; cited from earlier work
primary cultured neurons = tested on: primary cultured neurons; parameters: method as in Gervais et al., 2007; details: 100 μM HT; ref Gervais et al., 2007; cited from earlier work
[3] = parameters: method as in Hey et al., 2018; details: ref Hey et al., 2018; cited from earlier work
ρ1-GABAARs = tested on: ρ1-GABAARs; parameters: method as in Ochoa-de la Paz et al., 2018; details: expressed in oocytes, ref Ochoa-de la Paz et al., 2018, cited from earlier work
[4] = tested on: strychnine-sensitive glycine receptors; parameters: method as in Jia et al., 2008; details: ref Jia et al., 2008; cited from earlier work
[5] = tested on: chick embryonic neuronal cultures; parameters: method as in Louzada et al., 2004; details: 1 mM taurine; ref Louzada et al., 2004; cited from earlier work
rat brain GABAARs = tested on: rat brain GABAARs; parameters: method as in Bureau and Olsen, 1991; details: ref Bureau and Olsen, 1991, read-out: Average IC50 for displacing [3H]muscimol; cited from earlier work
mice = tested on: mice; parameters: method as in Singh et al., 2023; details: taurine 1 g/kg per day, ref Singh et al., 2023; cited from earlier work
[6] = tested on: GABAARs in thalamocortical relay neurons; parameters: method as in Jia et al., 2008; details: ref Jia et al., 2008; cited from earlier work

| Compound | Concentration at which currents reach saturation [1] | Threshold concentration for eliciting currents [1] | Hill slope of the concentration-response curve [1] | IC50 ([2]; room temperature) | Hill slope of the [3H]muscimol displacement curve [2] | Maximal current response (Imax ± SEM) [1] | EC50 [1] | also measured |
| --- | --- | --- | --- | --- | --- | --- | --- | --- |
| NCCCC(=O)O [GABA] | ~1 mM | 300 nM | 0.92 ± 0.13 |  |  |  |  |  |
| COc1ccc(-c2ccc(=N)n(CCCC(=O)O)n2)cc1 [Gabazine] |  |  |  |  |  |  |  | Block of currents evoked by 1 mM HT, 3 mM taurine and 3 mM GABA ([1]; applied together with saturating agonist): completely blocks |
| NCCCS(=O)(=O)O [HT, Homotaurine] | around 10 µM | ~100 nM | 0.79 ± 0.05 | 160 nM and 158 nM and ~200 nM | −0.79 ± 0.04 | −75 ± 7 pA | 400 nM and 425 nM and ~400 nM | IC50 [2]: 158 ± 10 nM; IC50 ([2]; room temperature, listed as Homotaurine): 158 ± 10 nM; Dose that reduces alcohol intake, relative to acetyl-HT (rat): ~10 fold; Concentration that stimulates GABAAR-mediated chloride flux (GABAAR): ≥ 100 µM; Effect on neuronal death induced by 5 μM Aβ42 (primary cultured neurons): inhibited; Potency relative to GABA ([1]; times more potent than GABA): about 10 times; Sensitivity of native CGC GABAARs relative to recombinant ρ1-GABAARs ([1]; times more sensitive to HT): about 1000 times; Estimated average total brain 14C-HT [3]: 0.55 µM; Type of agonism on recombinant ρ1-GABAARs (ρ1-GABAARs): partial agonist; EC50 (ρ1-GABAARs; read-out: EC50 on recombinant ρ1-GABAARs): ~300000 nM |
| NCCS(=O)(=O)O [taurine, Taurine] | around 3 mM | around 10 μM | 0.87 ± 0.06 | 125000 nM | −0.86 ± 0.04 | −67 ± 7 pA | 116000 nM | Concentration that also activates strychnine-sensitive glycine receptors [4]: > 100 µM; Effect on neurotoxicity of 44 μM Aβ42 and glutamate receptor agonists [5]: prevented; IC50 (rat brain GABAARs): ~50000 nM; Increase in life span (mice): 10%; Concentration that activates GABAARs [6]: ≥ 10 µM |
